Results from patent US20100197650A1, “COMPOSITIONS AND METHODS OF TREATMENT COMPRISING CEFTAROLINE” (FOREST LABORATORIES HOLDINGS LTD., priority 2008, published 2010).
In brackets after ≈: the same amount, converted by molar mass. Like-named read-outs stand apart in the source and are kept apart here.

How the values were obtained:
Pseudomonas aeruginosa = test: MIC, broth microdilution (Example 1); format: cell-based
Description: (§1) Stock solutions of all antibacterial agents were prepared at 80-fold (80×) the final target concentration in the appropriate solvent and the solution was allowed to stand for 60 minutes. All antibacterial agents were in solution under these conditions. The final drug concentrations in the FIC assay plates were set to bracket the MIC value of each agent for each test organism, unless the strain was totally resistant to the test agent.
(§2) The test organisms were originally received from clinical sources, or from the American Type Culture Collection. Upon receipt, the isolates were streaked onto the appropriate growth medium: Chocolate Agar for H. influenzae, Tryptic Soy Agar II (Becton Dickinson, Sparks, Md.) supplemented with 5% defibrinated sheep blood for streptococci, and unsupplemented Tryptic Soy Agar II for all other organisms. Colonies were harvested from these plates and a cell suspension was prepared in Tryptic Soy Broth (Becton Dickinson) containing cryoprotectant. Aliquots were then frozen at −80° C. On the day prior to assay, the frozen seeds of the organisms to be tested in that session were thawed and streaked for isolation onto the appropriate agar medium plates and incubated overnight at 35° C.
(§3) The test medium for H. influenzae was Haemophilus Test Medium. Streptococci were tested in Mueller Hinton II Broth (Becton Dickinson; Lot 6235472) supplemented with 2% lysed horse blood (Cleveland Scientific, Bath, Ohio; Lot H88621). All other organisms were tested in Mueller Hinton II Broth (Becton Dickinson, Lot 6235472). The broth was prepared at 1.05× normal weight/volume to offset the 5% volume of the drugs in the final test plates.
(§4) In order to select the proper test concentrations for each drug combination, minimal inhibitory concentration (MIC) values were first determined using the broth microdilution method previously described (Clinical and Laboratory Standards Institute. Methods for Dilution Antimicrobial Susceptibility Tests for Bacteria That Grow Aerobically; Approved Standard—Seventh Edition. Clinical and Laboratory Standards Institute document M7-A7 [ISBN 1-56238-587-9]. Clinical and Laboratory Standards Institute, 940 West Valley Road, Suite 1400, Wayne, Pa. 19087-1898 USA, 2006).
(§5) The wells of standard 96-well microdilution plates (Falcon 3918) were filled with 150 μL of 100% DMSO using the Multidrop 384. These plates were used to prepare the drug “mother plates” which provided the serial drug dilutions for the drug combination plates. The Biomek 2000 was used to transfer 150 μl of each stock solution (80×) from the wells in Column 1 of a deep well plate to the corresponding wells in Column 1 of the mother plate and to make seven 2-fold serial dilutions. Two mother plates, one for each drug, were combined to form a “checkerboard” pattern by transfer of equal volumes (using a multi-channel pipette) to the drug combination plate. Row H and Column 8 each contained serial dilutions of one of the agents alone for determination of the MIC.
(§6) Plates were stacked 3 high, covered with a lid on the top plate, placed in plastic bags, and incubated at 35° C. for approximately 20 hours. Following incubation, the microplates were removed from the incubator and viewed from the bottom using a ScienceWare plate viewer. Prepared reading sheets were marked for the MIC of drug 1 (row H), the MIC of drug 2 (column 8) and the wells of the growth-no growth interface.

Staphylococcus aureus = test: MIC, broth microdilution (Example 1); format: cell-based
Description: as §1, §2, §3, §4, §5, §6

Klebsiella pneumoniae = test: MIC, broth microdilution (Example 1); format: cell-based; conditions: Klebsiella pneumoniae
Description: as §1, §2, §3, §4, §5, §6

ESBL-producing E. coli = test: Susceptibility testing MIC/MBC, broth microdilution (Example 2); format: cell-based, Escherichia coli; conditions: for MBC range / MIC range: E. coli (10) clinical isolates; for MBC / MIC: Escherichia coli
P. aeruginosa = test: as above; format: cell-based, Pseudomonas aeruginosa; conditions: for MBC range / MIC range: P. aeruginosa (20) clinical isolates; for MBC / MIC: Pseudomonas aeruginosa
[1] = tested on: ESBL-producing Klebsiella pneumoniae; test: as above; format: cell-based; conditions: for MBC range / MIC range: K. pneumonia (10) clinical isolates; for MBC / MIC: Klebsiella pneumoniae
[2] = tested on: clinical Enterobacteriacae and P. aeruginosa isolates; test: Susceptibility testing (Example 2), summary over species; format: cell-based; conditions: Pseudomonas aeruginosa, read-out: MIC values
[3] = tested on: AmpC-derepressed Enterobacter cloacae; test: microbe, parasite or virus in culture; format: cell-based; conditions: for MBC range / MIC range: E. cloacae (10) clinical isolates; for MBC / MIC: Enterobacter cloacae
Streptococcus pneumoniae = test: MIC, broth microdilution (Example 1); format: cell-based
Description: as §1, §2, §3, §4, §5, §6

Acinetobacter baumannii = test: MIC, broth microdilution (Example 1); format: cell-based
Description: as §1, §2, §3, §4, §5, §6

C[C@@H](O)[C@H]1C(=O)N2C(C(=O)O)=C(S[C@@H]3CN[C@H](C(=O)N(C)C)C3)[C@H](C)[C@H]12 [Meropenem]
MIC (Pseudomonas aeruginosa; P. aeruginosa 2555): 4 µg/mL
MIC (Pseudomonas aeruginosa; P. aeruginosa 2559): 0.12 µg/mL
MIC (Staphylococcus aureus; S. aureus 2296 (CA-MRSA)): >16^a^ μg/mL
MIC (Staphylococcus aureus; Staphylococcus aureus, MRSA, S. aureus 2202 (CA-MRSA), read-out: MIC): 4 µg/mL
MIC (Staphylococcus aureus; Staphylococcus aureus, MRSA, S. aureus 2296 (CA-MRSA), read-out: MIC): > 16 µg/mL
MIC (Klebsiella pneumoniae; K. pneumoniae 1468 (ESBL), read-out: MIC): 0.06 µg/mL
MBC range (ESBL-producing E. coli): 0.06 to 0.125 µg/mL
MIC range (ESBL-producing E. coli): 0.03 to 0.06 µg/mL
MBC (ESBL-producing E. coli; E. coli isolate no. 5401, read-out: MBC): 0.06 µg/mL (≈ 0.156 µM)
MIC (ESBL-producing E. coli; E. coli isolate no. 5401, read-out: MIC): 0.06 µg/mL (≈ 0.156 µM)
MBC (ESBL-producing E. coli; E. coli isolate no. 5411, read-out: MBC): 0.06 µg/mL (≈ 0.156 µM)
MIC (ESBL-producing E. coli; E. coli isolate no. 5411, read-out: MIC): 0.06 µg/mL (≈ 0.156 µM)
MBC range (P. aeruginosa): 0.125 to 32 µg/mL
MIC range (P. aeruginosa): 0.125 to 16 µg/mL
MBC (P. aeruginosa; P. aeruginosa isolate no. 796, read-out: MBC): 2 µg/mL (≈ 5.22 µM)
MIC (P. aeruginosa; P. aeruginosa isolate no. 796, read-out: MIC): 1 µg/mL (≈ 2.61 µM)
MBC (P. aeruginosa; P. aeruginosa isolate no. 956, read-out: MBC): 2 µg/mL (≈ 5.22 µM)
MIC (P. aeruginosa; P. aeruginosa isolate no. 956, read-out: MIC): 0.25 µg/mL (≈ 0.652 µM)
MBC (P. aeruginosa; P. aeruginosa isolate no. 1019, read-out: MBC): 2 µg/mL (≈ 5.22 µM)
MIC (P. aeruginosa; P. aeruginosa isolate no. 1019, read-out: MIC): 1 µg/mL (≈ 2.61 µM)
MBC (P. aeruginosa; P. aeruginosa isolate no. 1037, read-out: MBC): 1 µg/mL (≈ 2.61 µM)
MIC (P. aeruginosa; P. aeruginosa isolate no. 1037, read-out: MIC): 0.5 µg/mL (≈ 1.3 µM)
MBC range [1]: 0.06 to 0.125 µg/mL
MIC range [1]: 0.03 to 0.06 µg/mL
MBC ([1]; K. pneumonia isolate no. 5427, read-out: MBC): 0.06 µg/mL (≈ 0.156 µM)
MIC ([1]; K. pneumonia isolate no. 5427, read-out: MIC): 0.06 µg/mL (≈ 0.156 µM)
MBC ([1]; K. pneumonia isolate no. 5436, read-out: MBC): 0.06 µg/mL (≈ 0.156 µM)
MIC ([1]; K. pneumonia isolate no. 5436, read-out: MIC): 0.06 µg/mL (≈ 0.156 µM)
MIC ([2]; Enterobacteriacae (30 isolates)): ≤ 4 µg/mL
MBC range [3]: 0.03 to 0.5 µg/mL
MIC range [3]: 0.03 to 0.25 µg/mL
MBC ([3]; E. cloacae isolate no. 4073): 0.5 µg/mL (≈ 1.3 µM)
MIC ([3]; E. cloacae isolate no. 4073): 0.25 µg/mL (≈ 0.652 µM)
MBC ([3]; E. cloacae isolate no. 5420): 0.125 µg/mL (≈ 0.326 µM)
MIC ([3]; E. cloacae isolate no. 5420): 0.125 µg/mL (≈ 0.326 µM)

CN(C)c1cc(NC(=O)CNC(C)(C)C)c(O)c2c1C[C@H]1C[C@H]3[C@H](N(C)C)C(O)=C(C(N)=O)C(=O)[C@@]3(O)C(O)=C1C2=O [Tigecycline]
MIC (Staphylococcus aureus; Staphylococcus aureus, MRSA, S. aureus 0765 (MRSA)): 0.25 µg/mL
MIC (Staphylococcus aureus; Staphylococcus aureus, MRSA, S. aureus 2053 (MRSA)): 0.5 µg/mL
MIC (Streptococcus pneumoniae; S. pneumoniae 0884 (PRSP)): 0.03 µg/mL
MIC (Streptococcus pneumoniae; Streptococcus pneumoniae, PRSP): 0.03 µg/mL
MIC (Klebsiella pneumoniae): 0.25 µg/mL
MIC (Acinetobacter baumannii; A. baumannii 2602): 0.06 µg/mL
MIC (Acinetobacter baumannii; Acinetobacter baumannii): 0.06 µg/mL
MBC range (ESBL-producing E. coli): 0.06 to 4 µg/mL
MIC range (ESBL-producing E. coli): 0.06 to 0.5 µg/mL
MBC (ESBL-producing E. coli; E. coli isolate no. 5401): 1 µg/mL (≈ 1.71 µM)
MIC (ESBL-producing E. coli; E. coli isolate no. 5401): 0.5 µg/mL (≈ 0.854 µM)
MBC (ESBL-producing E. coli; E. coli isolate no. 5411): 0.5 µg/mL (≈ 0.854 µM)
MIC (ESBL-producing E. coli; E. coli isolate no. 5411): 0.125 µg/mL (≈ 0.213 µM)
MBC range (P. aeruginosa): 8 to 256 µg/mL
MIC range (P. aeruginosa): 2 to 32 µg/mL
MBC (P. aeruginosa; P. aeruginosa isolate no. 796): 32 µg/mL (≈ 54.6 µM)
MIC (P. aeruginosa; P. aeruginosa isolate no. 796): 32 µg/mL (≈ 54.6 µM)
MBC (P. aeruginosa; P. aeruginosa isolate no. 956): 128 µg/mL (≈ 219 µM)
MIC (P. aeruginosa; P. aeruginosa isolate no. 956): 16 µg/mL (≈ 27.3 µM)
MBC (P. aeruginosa; P. aeruginosa isolate no. 1019): 8 µg/mL (≈ 13.7 µM)
MIC (P. aeruginosa; P. aeruginosa isolate no. 1019): 2 µg/mL (≈ 3.41 µM)
MBC (P. aeruginosa; P. aeruginosa isolate no. 1037): 32 µg/mL (≈ 54.6 µM)
MIC (P. aeruginosa; P. aeruginosa isolate no. 1037): 8 µg/mL (≈ 13.7 µM)
MBC range [1]: 0.5 to 8 µg/mL
MIC range [1]: 0.125 to 1 µg/mL
MBC ([1]; K. pneumonia isolate no. 5427): 2 µg/mL (≈ 3.41 µM)
MIC ([1]; K. pneumonia isolate no. 5427): 0.5 µg/mL (≈ 0.854 µM)
MBC ([1]; K. pneumonia isolate no. 5436): 1 µg/mL (≈ 1.71 µM)
MIC ([1]; K. pneumonia isolate no. 5436): 0.125 µg/mL (≈ 0.213 µM)
MIC [2]: ≤ 8 µg/mL
MBC range [3]: 0.5 to 4 µg/mL
MIC range [3]: 0.25 to 2 µg/mL
MBC ([3]; E. cloacae isolate no. 4073): 2 µg/mL (≈ 3.41 µM)
MIC ([3]; E. cloacae isolate no. 4073): 0.5 µg/mL (≈ 0.854 µM)
MBC ([3]; E. cloacae isolate no. 5420): 2 µg/mL (≈ 3.41 µM)
MIC ([3]; E. cloacae isolate no. 5420): 0.5 µg/mL (≈ 0.854 µM)
